Where two headings read alike, the source gives them in different places. Where a SMILES comes first, the peptide text is derived from it. [ ]: non-standard residue; d: D form. Nle = CCCC[C@H](N)C(=O)O
Assays:
Assay type in all cases: cell-based
Pim-1 = assay: Western blotting of Pim-1 in cells cultured with a proteasome inhibitor; conditions: PCI-43 cells, normoxia, 50 μM ALLN, 6 and 12 hours
Protocol: The cells used were HCT116 (colon cancer cell line), HePG2 (liver cancer cell line), KMP-4 (pancreatic cancer cell line), PCI-10 (pancreatic cancer cell line), PCI-35 (pancreatic cancer cell line), and PCI-43 (pancreatic cancer cell line). Each type of cell was cultured for 16 hours under hypoxia (1% oxygen, 5% carbondioxide), or normoxia (20% oxygen, 5% carbondioxide). RNA was extracted from the cultured cells using Trizol reagent, and proteins were extracted from the cultured cells using 1% NP-40 lysis buffer ([…] pH7.5, […], 2 μM EDTA, 1 μM EGTA, 50 μM NaF, 1 μM Na3VO4, 1 mM PMSF).
Proteins were detected by Western blotting. More specifically, the above-mentioned samples were electrophoresed through 12% polyacrylamide gels, and then blotted onto nitrocellulose membranes. The membranes were blocked with blocking buffer (5% skim milk, in physiological Tween-phosphate buffer), reacted with anti-Pim-1 antibody for one hour, then incubated with peroxidase-conjugated goat anti-mouse IgG secondary antibody, and detected using an ECL detection kit (Amersham).
Whether or not Pim-1 is degraded by proteases under normoxia was investigated. PCI-43 cells were cultured under hypoxia and normoxia. Cells cultured under hypoxia were sampled before culturing, and after culturing for 4, 12, and 24 hours. […]

PCI-43 cells [1] = assay: Number of live cells after 48 hours of treatment with anticancer agents (IC50); conditions: concentration halving the number of live cells
Protocol: (§1) The sensitivity of solid cancer cells to anticancer agents under low and normal oxygen partial pressures was investigated. Three types of solid pancreatic cancer cell lines (PCI-35 cells, KMP-4 cells, and PCI-43 cells) were used as the cells. For each type of cell, 2×10^3 cells were cultured for six hours in the presence of 50 μg/mL of cisplatin under low oxygen partial pressure (1% oxygen, 5% carbondioxide; hereinafter, the same values in the Examples) or normal oxygen partial pressure (20% oxygen, 5% carbondioxide; hereinafter, the same values in the Examples). After culturing, the cells were washed twice with physiological phosphate buffer (pH7.4) to prepare samples. Dulbecco's Modified Eagle's Medium/F12 was used as the medium for culturing (hereinafter, unless particularly specified, use of the same medium is assumed).
Using gemcitabine, adriamycin, and cisplatin, and using PCI-43 cells, measurements were made as in Example 1. The concentrations of gemcitabine and adriamycin were 0.1 to 1 μmol and 0.1 to 5 μmol, respectively. IC50 values were calculated from the measured results, as shown below.
The number of live cells was determined after 48 hours of treatment with various concentrations of anticancer agents, and the concentrations of anticancer agents needed to half the number of live cells present when the various anticancer agents were not added were defined as IC50 values.

[2] = system: PCI-35 cells, KMP-4 cells, and PCI-43 cells; assay: FACS analysis of apoptosis (PI / anti-anexin V staining) under hypoxia and normoxia, three pancreatic cancer cell lines; conditions: 50 μg/mL cisplatin, six hours, PCI-35, KMP-4 and PCI-43 cells
Protocol: as §1
(§2) The cells described above were stained with propidium iodide (PI) and FITC-conjugated anti-anexin V, and FACS analysis was performed using FACS calibur (Becton Dickinson).
In FIG. 1, “Normoxia” means under normal oxygen partial pressure, and “Hypoxia” means under low oxygen partial pressure (the same hereinafter). The FACS analyses in the Examples can be described as staining of cells with PI and anti-anexin V, and sorting of cells based on the intensity of staining to show distributions such as those in FIG. 1. […]

PCI-43 cells [3] = assay: FACS analysis of apoptosis (PI / anti-anexin V staining) under hypoxia and normoxia; conditions: 50 μg/mL cisplatin, 12 and 24 hours
Protocol: as §1, §2
In FIG. 1, “Normoxia” means under normal oxygen partial pressure, and “Hypoxia” means under low oxygen partial pressure (the same hereinafter). […]
PCI-43 cells were cultured for up to 24 hours under the same conditions as in Example 1. Samples obtained before culturing, and after culturing for 12 hours and 24 hours were analyzed as in Example 1. […]

[4] = hypoxia (1% oxygen, 5% carbondioxide), read-out: IC50 (μM), Hypoxia
[5] = normoxia (20% oxygen, 5% carbondioxide), read-out: IC50 (μM), Normoxia

| IC50 (PCI-43 cells [1]; [4]) [µM] | IC50 (PCI-43 cells [1]; [5]) [µM] | SMILES | amount of Pim-1 (Western blotting) (Pim-1) | induction of apoptosis under normoxia compared with hypoxia [2] | proportion of apoptotic cells under hypoxia compared with normoxia (PCI-43 cells [3]) |
| --- | --- | --- | --- | --- | --- |
| – | – | CCCC[C@@H](C=O)NC(=O)[C@H](CC(C)C)NC(=O)[C@H](CC(C)C)NC(C)=O [ALLN, N-acetyl-L-leucinyl-L-leucinyl-L-norleucinal] (Ac-Leu-Leu-[Nle]-aldehyde) | the amount of Pim-1 also increased with time under normoxia | – | – |
| 1.56 | 0.272 | Nc1ccn([C@@H]2O[C@H](CO)[C@@H](O)C2(F)F)c(=O)n1 [Gemcitabine, gemcitabine] | – | – | – |
| 1.9 | 0.3 | COc1cccc2c1C(=O)c1c(O)c3c(c(O)c1C2=O)C[C@@](O)(C(=O)CO)C[C@@H]3O[C@H]1C[C@H](N)[C@H](O)[C@H](C)O1 [Adriamycin, adriamycin] | – | – | – |

| SMILES | IC50 (PCI-43 cells [1]; [4]) [µM] | IC50 (PCI-43 cells [1]; [5]) [µM] | amount of Pim-1 (Western blotting) (Pim-1) | induction of apoptosis under normoxia compared with hypoxia [2] | proportion of apoptotic cells under hypoxia compared with normoxia (PCI-43 cells [3]) |
| --- | --- | --- | --- | --- | --- |
| N.N.[Cl][Pt][Cl] [Cisplatin, cisplatin] | 27.7 | 18.6 | – | approximately twice that under hypoxia | approximately half that under normoxia |
